Laboratory results as given in ChEMBL document CHEMBL1201862, “PubChem BioAssay data set” (2004).
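Each compound was tested at five concentrations against cells in 96-well plates for 48 hours. GI50 is the concentration that inhibits growth by half.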 Activity calls are given as the source filed them. Cut-off read from the data, not from the text of the source: active = GI50 up to about 1.1 µM and inactive = higher.

Key:
Assay in all cases: inhibition of tumour cell growth, NCI panel, 48 h
EKVX = test system: EKVX
CAKI-1 = test system: CAKI-1
OVCAR-8 = test system: OVCAR-8
NCI-H522 = test system: NCI-H522
SNB-75 = test system: SNB-75
RXF 393 = test system: RXF 393
HCT-15 = test system: HCT-15
UACC-257 = test system: UACC-257
OVCAR-5 = test system: OVCAR-5
SK-OV-3 = test system: SK-OV-3
COLO 205 = test system: COLO 205
OVCAR-3 = test system: OVCAR-3
HOP-62 = test system: HOP-62
HCC 2998 = test system: HCC 2998
SF-295 = test system: SF-295
SNB-19 = test system: SNB-19
KM-20L2 = test system: KM-20L2
TK-10 = test system: TK-10
SR = test system: SR
M14 = test system: M14

Row | SMILES | GI50 (EKVX) | GI50 (CAKI-1) | GI50 (OVCAR-8) | GI50 (NCI-H522) | GI50 (SNB-75) | GI50 (RXF 393) | GI50 (HCT-15) [µM] | GI50 (UACC-257) | GI50 (OVCAR-5) | GI50 (SK-OV-3) | GI50 (COLO 205) | GI50 (OVCAR-3) | GI50 (HOP-62) | GI50 (HCC 2998) | GI50 (SF-295) | GI50 (SNB-19) | GI50 (KM-20L2) | GI50 (TK-10) | GI50 (SR) | GI50 (M14)
1 | O=NN1C(c2ccccc2)CCCC1c1ccccc1 (configuration not stated) | > 62.2 µM (inactive) | 97.7 µM (inactive) | > 43.8 µM (inactive) | 23.4 µM (inactive) | 28.3 µM (inactive) | 44.5 µM (inactive) | 62.4 | 72.1 µM (inactive) | > 100 µM (inactive) | 31.9 µM (inactive) | 50.8 µM (inactive) | > 41.8 µM (inactive) | > 100 µM (inactive) | 80.4 µM (inactive) | 22.1 µM (inactive) | > 100 µM (inactive) | > 100 µM (inactive) | – | – | –
2 | CC(=O)OCC1OC(OCCCCCCO)C(OC(C)=O)C(OC(C)=O)C1OC(C)=O (configuration not stated) | > 100 µM (inactive) | > 100 µM (inactive) | > 100 µM (inactive) | > 100 µM (inactive) | > 100 µM (inactive) | > 100 µM (inactive) | > 100 | > 100 µM (inactive) | > 100 µM (inactive) | > 100 µM (inactive) | – | > 100 µM (inactive) | > 100 µM (inactive) | > 100 µM (inactive) | > 100 µM (inactive) | > 100 µM (inactive) | – | > 100 µM (inactive) | > 100 µM (inactive) | > 100 µM (inactive)
3 | Cc1ccc(-c2cc(-c3ccco3)c(C#N)c(=O)n2C2OC(CO)C(O)C(O)C2O)cc1 (configuration not stated) | > 100 µM (inactive) | – | 32.2 µM (inactive) | 44.5 µM (inactive) | – | 48.3 µM (inactive) | 83.6 | 58.5 µM (inactive) | > 100 µM (inactive) | 28.7 µM (inactive) | > 100 µM (inactive) | 45.6 µM (inactive) | 49.5 µM (inactive) | > 100 µM (inactive) | 33.6 µM (inactive) | 68.2 µM (inactive) | > 100 µM (inactive) | 45.3 µM (inactive) | > 100 µM (inactive) | 67.5 µM (inactive)
4 | O=C(CC(C(=O)c1cccs1)c1ccc2c(c1)OCO2)c1ccc(Br)cc1 (configuration not stated) | > 100 µM (inactive) | > 100 µM (inactive) | > 100 µM (inactive) | – | > 100 µM (inactive) | – | > 100 | > 100 µM (inactive) | – | > 100 µM (inactive) | > 100 µM (inactive) | – | > 100 µM (inactive) | > 100 µM (inactive) | > 100 µM (inactive) | 8.51 µM (inactive) | – | > 100 µM (inactive) | > 100 µM (inactive) | > 100 µM (inactive)
5 | Clc1cc2c(c(CSC3=NCN(CC4CC4)CN3)c1)OCOC2 | 20 µM (inactive) | 34.2 µM (inactive) | 26.9 µM (inactive) | 14.5 µM (inactive) | 18.4 µM (inactive) | 17.3 µM (inactive) | 21.5 | 16.2 µM (inactive) | 21 µM (inactive) | 24.6 µM (inactive) | 13.6 µM (inactive) | 23.4 µM (inactive) | 21.9 µM (inactive) | 15.2 µM (inactive) | 24.6 µM (inactive) | 26.1 µM (inactive) | – | 17.2 µM (inactive) | 15.2 µM (inactive) | 13.8 µM (inactive)
6 | COc1ccc2c(c1)CCN=C2Cc1cc(OC)c(OC)cc1CCCl | > 100 µM (inactive) | > 100 µM (inactive) | > 100 µM (inactive) | 21.7 µM (inactive) | > 100 µM (inactive) | 24.9 µM (inactive) | – | 45.4 µM (inactive) | 17.3 µM (inactive) | > 100 µM (inactive) | 58.7 µM (inactive) | 22.7 µM (inactive) | 3.08 µM (inactive) | 30.5 µM (inactive) | 30.9 µM (inactive) | 97.1 µM (inactive) | – | 35.7 µM (inactive) | 94.6 µM (inactive) | 21.2 µM (inactive)
7 | N#CC1(C#N)C(=O)c2ccncc2C1=O | > 100 µM (inactive) | > 100 µM (inactive) | > 100 µM (inactive) | > 100 µM (inactive) | > 100 µM (inactive) | > 100 µM (inactive) | > 100 | > 100 µM (inactive) | > 100 µM (inactive) | > 100 µM (inactive) | > 100 µM (inactive) | > 100 µM (inactive) | – | > 100 µM (inactive) | > 100 µM (inactive) | > 100 µM (inactive) | – | – | > 100 µM (inactive) | > 100 µM (inactive)
8 | CN1NC(c2ccccc2)=C(C#N)C(=O)CC1c1ccc(Br)cc1 (configuration not stated) | – | 41.9 µM (inactive) | – | 22.3 µM (inactive) | 16.6 µM (inactive) | 36.6 µM (inactive) | 24.3 | 69.5 µM (inactive) | 25.5 µM (inactive) | 31.8 µM (inactive) | – | – | 21.4 µM (inactive) | 34.5 µM (inactive) | 11.9 µM (inactive) | 28.8 µM (inactive) | > 10 µM (inactive) | 75.3 µM (inactive) | 36.2 µM (inactive) | 20.9 µM (inactive)
9 | O=C1NC2=C(CCCC/C2=N\O)C12CCCCC2 | > 100 µM (inactive) | – | – | – | > 100 µM (inactive) | > 100 µM (inactive) | > 100 | > 100 µM (inactive) | > 100 µM (inactive) | > 100 µM (inactive) | – | > 100 µM (inactive) | > 100 µM (inactive) | > 100 µM (inactive) | > 100 µM (inactive) | > 100 µM (inactive) | > 100 µM (inactive) | > 100 µM (inactive) | 80.9 µM (inactive) | > 100 µM (inactive)
10 | COc1cc(/C=C/C(=O)C(C)(C)C)cc(OC)c1OC | 45.7 µM (inactive) | 50.1 µM (inactive) | 33.4 µM (inactive) | 29 µM (inactive) | 25.9 µM (inactive) | 28.4 µM (inactive) | 61.8 | 28.1 µM (inactive) | > 100 µM (inactive) | 29.8 µM (inactive) | 40 µM (inactive) | 37.2 µM (inactive) | > 100 µM (inactive) | 48.2 µM (inactive) | 38.9 µM (inactive) | > 100 µM (inactive) | 51.1 µM (inactive) | > 100 µM (inactive) | 30.2 µM (inactive) | 33.3 µM (inactive)
11 | COC(=O)C12CC3CC(CC(C(=O)O)(C3)C1)C2 | > 100 µM (inactive) | > 100 µM (inactive) | > 100 µM (inactive) | > 100 µM (inactive) | > 100 µM (inactive) | – | > 100 | > 100 µM (inactive) | > 100 µM (inactive) | > 100 µM (inactive) | – | > 100 µM (inactive) | > 100 µM (inactive) | > 100 µM (inactive) | > 100 µM (inactive) | > 100 µM (inactive) | > 100 µM (inactive) | > 100 µM (inactive) | > 100 µM (inactive) | > 100 µM (inactive)
12 | CCOC(=O)c1ccc(N(CCOS(=O)(=O)c2ccc(C)cc2)CCOS(=O)(=O)c2ccc(C)cc2)cc1 | > 100 µM (inactive) | 4.94 µM (inactive) | > 100 µM (inactive) | > 100 µM (inactive) | – | 4.49 µM (inactive) | > 100 | > 100 µM (inactive) | > 100 µM (inactive) | – | > 100 µM (inactive) | > 100 µM (inactive) | – | > 100 µM (inactive) | > 100 µM (inactive) | > 100 µM (inactive) | – | > 100 µM (inactive) | – | > 100 µM (inactive)
13 | Cc1ccc(Nc2n[nH]c(NS(=O)(=O)c3cc(C(=O)Nc4ccc(Cl)cc4)c(Cl)cc3S)n2)cc1 | 35 µM (inactive) | > 100 µM (inactive) | > 100 µM (inactive) | – | > 100 µM (inactive) | 62.2 µM (inactive) | > 100 | > 100 µM (inactive) | > 100 µM (inactive) | > 100 µM (inactive) | > 100 µM (inactive) | > 100 µM (inactive) | > 100 µM (inactive) | – | > 100 µM (inactive) | > 100 µM (inactive) | – | > 100 µM (inactive) | > 100 µM (inactive) | > 100 µM (inactive)
14 | CC(=O)O[C@]12CCCCCC1C1(O)C(O)CCCC[C@H]12 (some centres not stated) | > 100 µM (inactive) | – | > 100 µM (inactive) | > 100 µM (inactive) | 14.7 µM (inactive) | > 100 µM (inactive) | > 100 | > 100 µM (inactive) | – | > 100 µM (inactive) | > 100 µM (inactive) | – | > 100 µM (inactive) | – | > 100 µM (inactive) | > 100 µM (inactive) | > 100 µM (inactive) | > 100 µM (inactive) | > 100 µM (inactive) | > 100 µM (inactive)
15 | O=S(=O)(O)c1ccc(/N=N\c2ccc(/N=N/c3ccc(/C=C/c4ccc(/N=[N+](\[O-])c5ccc(/C=C/c6ccc(/N=N/c7ccc(/N=N/c8ccc(S(=O)(=O)O)cc8)c8ccccc78)cc6S(=O)(=O)O)c(S(=O)(=O)O)c5)cc4S(=O)(=O)O)c(S(=O)(=O)O)c3)c3ccccc23)cc1 | > 100 µM (inactive) | – | > 100 µM (inactive) | 54.5 µM (inactive) | 50.7 µM (inactive) | > 100 µM (inactive) | > 100 | > 100 µM (inactive) | > 100 µM (inactive) | > 100 µM (inactive) | > 100 µM (inactive) | 99.1 µM (inactive) | > 100 µM (inactive) | > 100 µM (inactive) | > 74.6 µM (inactive) | > 10 µM (inactive) | > 100 µM (inactive) | – | – | –
16 | O=C(O)Cc1cccc2c1Oc1ccccc1S2 | > 100 µM (inactive) | – | > 100 µM (inactive) | – | > 100 µM (inactive) | > 100 µM (inactive) | > 100 | > 100 µM (inactive) | – | > 100 µM (inactive) | > 100 µM (inactive) | > 100 µM (inactive) | > 100 µM (inactive) | > 100 µM (inactive) | > 100 µM (inactive) | > 100 µM (inactive) | > 100 µM (inactive) | > 100 µM (inactive) | – | > 100 µM (inactive)
